Values after ≈ are worked out from the molar mass of the structure shown. Read-outs that look alike come from different tables or passages of the source.
Legend:
[1] = test system: Pc-Mb(II); parameters: method as in PMID 5800433; conditions: pH 7.0, 20.0 °C, temperature-jump method; cited from earlier work
[2] = biological target: T1, Hs-Nb(II) (Homo sapiens, UniProt Q8WY91); assay: O2 dissociation from Hs-Nb(II)-O2 by oxygen pulse experiments; type: binding; conditions: Hs-Nb(II)-O2, pH 7.0, 25.0 °C
T1 construct: Homo sapiens Nb (Hs-Nb) is the C-terminal domain of the THAP4 protein; made in house
T1 sequence (Q8WY91 415-577 limits assumed): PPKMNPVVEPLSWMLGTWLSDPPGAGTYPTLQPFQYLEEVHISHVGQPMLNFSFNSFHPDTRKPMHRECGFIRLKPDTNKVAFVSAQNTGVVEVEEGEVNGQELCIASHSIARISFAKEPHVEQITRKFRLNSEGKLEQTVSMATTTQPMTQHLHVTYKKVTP
Experimental: (§1) Kinetics of O2 dissociation from the transient Mt-Nb(II)-O2, At-Nb(II)-O2 and Hs-Nb(II)-O2 species were investigated spectrophotometrically at pH 7.0 (1.0 × 10^−1 M phosphate buffer) and 25.0 °C by oxygen pulse experiments. This type of reaction proceeds according to Scheme 6.
(§2) The deoxygenation of Mt-Nb(II)-O2 and Hs-Nb(II)-O2 process was followed at 431 nm. Kinetics of Mt-Nb(II)-O2 and Hs-Nb(II)-O2 deoxygenation were analyzed according to Equation (1).
(§3) Rapid-mixing experiments were carried out employing an SX18.MV stopped-flow apparatus (Applied Photophysics, Salisbury, UK) equipped with a diode array for spectra acquisition over a 1 ms time range; the light path of the observation chamber was 10 mm.

[3] = biological target: T2, At-Nb(II) (Arabidopsis thaliana, UniProt O64527); assay: O2 dissociation from At-Nb(II)-O2 by oxygen pulse experiments; type: binding; conditions: At-Nb(II)-O2, pH 7.0, 25.0 °C
T2 construct: made in house
T2 sequence (O64527 whole entry): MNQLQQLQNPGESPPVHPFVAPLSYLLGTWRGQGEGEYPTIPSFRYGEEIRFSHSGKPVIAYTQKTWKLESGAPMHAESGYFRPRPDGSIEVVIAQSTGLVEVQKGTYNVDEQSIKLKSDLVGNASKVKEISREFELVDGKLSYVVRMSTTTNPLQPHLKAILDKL
Experimental: as §1, §2, §3

[4] = biological target: T3, Mt-Nb(II) (Mycobacterium tuberculosis, UniProt P9WFG7); assay: O2 dissociation from Mt-Nb(II)-O2 by oxygen pulse experiments; type: binding; parameters: made in house; conditions: Mt-Nb(II)-O2, pH 7.0, 25.0 °C
T3 sequence (P9WFG7 whole entry): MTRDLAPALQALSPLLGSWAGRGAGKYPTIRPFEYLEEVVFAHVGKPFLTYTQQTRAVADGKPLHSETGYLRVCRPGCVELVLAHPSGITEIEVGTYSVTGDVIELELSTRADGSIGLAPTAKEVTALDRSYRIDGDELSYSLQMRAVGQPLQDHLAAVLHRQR
Experimental: as §1, §2, §3

[5] = cited from earlier work
[6] = biological target: Rp-NP7(II); parameters: method as in PMID 22594621; conditions: pH 7.5, 20.0 °C, cited from earlier work
[7] = biological target: T2, At-Nb(II); parameters: method as in PMID 19938152; conditions: pH 7.0, 20.0 °C, cited from earlier work
[8] = test system: Pc-Mb(II); assay: CO binding kinetics to Pc-Mb(II) (literature); parameters: species or system Physeter catodon
[9] = test system: Ec-Mb(II); conditions: cited from earlier work
[10] = biological target: Rp-NP4(II); parameters: method as in PMID 22594621; conditions: pH 7.5, 20.0 °C, cited from earlier work
[11] = test system: Pc-Mb(II); parameters: method as in PMID 2303446; conditions: pH 7.0, 20.0 °C, cited from earlier work
[12] = biological target: T1, Hs-Nb(II); assay: CO binding to and dissociation from Hs-Nb(II) by rapid-mixing stopped-flow (incl. CO displacement by NO); conditions: for kobs(CO): λ = 421 nm
Experimental: Progress kinetic curves at selected wavelengths were analyzed according to Equation (1): (1) ODobs=OD0±∑i=1i−nΔODie^(−kit) where ODobs is the observed optical density at a selected wavelength and at a given time interval, OD0 is the optical density at t = 0, n is the number of exponentials, ΔODi is the optical density change associated to the exponential i, ki is the pseudo-first-order rate constant of the exponential i (i.e., kobs(CO)) and t is the time. Since data collection occurs on a logarithmic scale, experimental points in the first second represent the absolute majority (about 70 out of 100 points) of total collected ones.
Values of the second-order rate constant for Mt-Nb(II)-CO and Hs-Nb(II)-CO formation (i.e., kon(CO)) and of the first-order rate constant for CO dissociation from Mt-Nb(II)-CO and Hs-Nb(II)-CO (i.e., koff(CO)) were obtained from the dependence of the pseudo-first-order rate constant for Mt-Nb(II) and Hs-Nb(II) carbonylation (i.e., kobs(CO)) on the ligand concentration (i.e., [CO]) according to Equation (2):kobs(CO) = kon(CO) × [CO] + koff(CO)(2)
The values of the first-order rate constant for CO dissociation from Mt-Nb(II)-CO and Hs-Nb(II)-CO (i.e., for CO replacement by NO; koff(CO)) were also determined by mixing the Mt-Nb(II)-CO and Hs-Nb(II)-CO (final concentration, 2.0 × 10^−6 M to 5.0 × 10^−6 M; [CO] = 1.0 × 10^−4 M) solutions with the NO saturated solution (final concentration, […]), under anaerobic conditions (i.e., in the presence of 2.0 × 10^−3 M sodium dithionite), at pH 7.0 (1.0 × 10^−1 M phosphate buffer), and 25.0 °C; no gaseous phase was present. Kinetics of CO dissociation from Mt-Nb(II)-CO and Hs-Nb(II)-CO was recorded at 421 nm.
The conversion of Mt-Nb(II)-CO and Hs-Nb(II)-CO to Mt-Nb(II)-NO and Hs-Nb(II)-NO, respectively, was analyzed in the framework of Scheme 2 [75]:
The values of koff(CO) were determined from data analysis, according to Equation (1). The over 100-fold excess of NO over CO guarantees that the reaction proceeds rightward because kon(NO) × [NO] >> kon(CO) × [CO] [75].
Rapid-mixing experiments were carried out employing an SX18.MV stopped-flow apparatus (Applied Photophysics, Salisbury, UK), equipped with a diode array for spectra acquisition over a 1 ms time range (the light path of the observation chamber was 10 mm) and an SFM-20/MOS-200 rapid-mixing stopped-flow apparatus (BioLogic Science Instruments, Claix, France) (the light path of the observation chamber was 10 mm).

[13] = test system: Ec-Mb(II); assay: CO binding kinetics to Ec-Mb(II) (literature); parameters: species or system Equus caballus
[14] = biological target: T3, Mt-Nb(II); assay: CO rebinding to Mt-Nb(II) after nanosecond laser flash photolysis
Description: CO rebinding kinetics to Mt-Nb(II) and Hs-Nb(II) at pH 7.4 (5.0 × 10^−2 M phosphate buffer) was obtained using the second harmonic (532 nm) of a Q-switched Nd:YAG laser (Surelite I-10, Continuum, Santa Clara, CA, USA) and the cw output of a 150 W Xe arc lamp was used as probe beam to monitor absorbance changes at 436 nm.
The CO adducts were obtained by equilibrating solutions in either 0.2 CO atm or 1.0 CO atm. The oxidation state, the molar fraction of ferrous carbonylated Nbs, and the Nb concentration were determined spectrophotometrically. Kinetics were analyzed according to Scheme 3.
According to Scheme 3, there are two types of processes, namely the formation of the A state directly from state B, which is much faster and independent on the ligand concentration (geminate recombination), whose extent φgem depends on the relative rates kBA(L) and kBC(L) according to the following relationship (3) φgem= kBA(L)/(kBA(L)+kBC(L)) and the observed rate rgem corresponds to (4) rgem= kBA(L)+ kBC(L) the formation of state A from state C (through the transient formation of state B), which depends on the ligand concentration (bimolecular recombination) and it is characterized by the second-order rate rbim corresponding to (5) rbim= kCB(L) × φgem

[15] = biological target: T1, Hs-Nb(II); assay: CO rebinding to Hs-Nb(II) after nanosecond laser flash photolysis; type: binding
Experimental: Kinetics were analyzed according to Scheme 3.

[16] = biological target: T3, Mt-Nb(II); assay: CO binding to and dissociation from Mt-Nb(II) by rapid-mixing stopped-flow (incl. CO displacement by NO); parameters: made in house
[17] = faster phase, Eyring plots 10.0-40.0 °C
[18] = slower phase, Eyring plots 10.0-40.0 °C

Structure (SMILES): O=O [O2]
- koff(O2) [1]: 10 s⁻¹
- koff(O2) [2]: 19 s⁻¹
- koff(O2) [3]: 6.8 s⁻¹
- koff(O2) [4]: 11 s⁻¹
- solubility in the aqueous buffered solution ([5]; p = 760 mm Hg, T = 20.0 °C, phosphate buffer pH 7.0, reference not given): 1250 µM (≈ 40 µg/mL)

Structure (SMILES): [C-]#[O+] [CO]
- Kd ([6]; read-out: K (=koff/kon) for CO, first value (30% phase)): 0.088 nM
- Kd ([6]; read-out: K (=koff/kon) for CO, second value (70% phase) (converted)): 0.015 nM
- koff(CO), 30% phase [6]: 0.0044 s⁻¹
- koff(CO), 70% phase [6]: 0.00076 s⁻¹
- kon(CO) [6]: 5e+07 M⁻¹ s⁻¹
- Kd ([7]; read-out: K (=koff/kon) for CO): 220 nM
- koff(CO) [7]: 0.05 s⁻¹
- kon(CO) [7]: 230000 M⁻¹ s⁻¹
- activation free energy ΔG^‡ of CO binding [8]: 9.49 kcal/mol
- koff(CO) ([9]; footnote not given): 0.035 s⁻¹
- kon(CO) ([9]; pH 7.0, 20.0 °C): 500000 M⁻¹ s⁻¹
- kon(CO) ([9]; pH 7.0, 25.0 °C): 610000 M⁻¹ s⁻¹
- Kd ([9]; read-out: K (=koff/kon) for CO): 57 nM
- Kd ([10]; read-out: K (=koff/kon) for CO, first value (77% phase)): 0.22 nM
- Kd ([10]; read-out: K (=koff/kon) for CO, second value (23% phase)): 0.22 nM
- koff(CO), 23% phase [10]: 0.0041 s⁻¹
- koff(CO), 77% phase [10]: 0.0097 s⁻¹
- kon(CO), 23% phase [10]: 1.9e+07 M⁻¹ s⁻¹
- kon(CO), 77% phase [10]: 4.5e+07 M⁻¹ s⁻¹
- kon(CO) ([11]; rapid-mixing and laser photolysis): 510000 M⁻¹ s⁻¹
- Kd ([11]; read-out: K (=koff/kon) for CO): 37 nM
- koff(CO) [11]: 0.019 s⁻¹
- kobs(CO) ([12]; Hs-Nb(II), [CO] = 2.1 × 10^−4 M, pH 7.0, 25.0 °C): (2.4 ± 0.3) × 10^1 s^−1
- kobs(CO) ([12]; Hs-Nb(II), [CO] = 4.5 × 10^−5 M, pH 7.0, 25.0 °C): 8.3 ± 0.9 s⁻¹
- kobs(CO) ([12]; Hs-Nb(II), [CO] = 7.0 × 10^−5 M, pH 7.0, 25.0 °C): (1.1 ± 0.1) × 10^1 s^−1
- Kd ([12]; Hs-Nb(II), pH 7.0, 25.0 °C, read-out: K (=koff/kon) for CO): 38000 nM
- kon(CO) ([12]; Hs-Nb(II), rapid-mixing, pH 7.0, 25.0 °C): 100000 M⁻¹ s⁻¹
- koff(CO) ([12]; Hs-Nb(II)-CO, pH 7.0, 25.0 °C): 3.8 ± 0.5 s⁻¹
- activation free energy ΔG^‡ of CO binding ([12]; Hs-Nb, from CO binding rate constant): 10.4 kcal/mol
- activation free energy ΔG^‡ of CO binding [13]: 9.37 kcal/mol
- ΔH1^‡ bimolecular CO binding [14, 17]: 7.65 ± 0.48 kcal/mol
- ΔG1^‡ bimolecular CO binding ([14]; faster phase, at 20.0 °C): 10 ± 0.72 kcal/mol
- φgem (CO geminate rebinding) ([14]; laser photolysis): ≤ 0.05
- ΔH2^‡ bimolecular CO binding [14, 18]: 8.6 ± 0.96 kcal/mol
- ΔG2^‡ bimolecular CO binding ([14]; slower phase, at 20.0 °C): 10.5 ± 0.96 kcal/mol
- rgem (CO geminate recombination rate) ([15]; 25 °C): 9e+07 s⁻¹
- kBA(CO) ≈ rgem × φgem ([15]; Equation (3)): ≈ 4.5 × 10^6 s^−1
- kBC(CO) ≈ rgem - kBA(CO) ([15]; escape to solvent): ≈ 8.5 × 10^7 s^−1
- ΔH1^‡ bimolecular CO binding [15, 17]: 9.08 ± 0.96 kcal/mol
- ΔG1^‡ bimolecular CO binding ([15]; faster phase, at 20.0 °C): 8.37 ± 2.87 kcal/mol
- geminate CO recombination, share of total amplitude of the rebinding process ([15]; laser photolysis): ~ 5%
- φgem (CO geminate rebinding) ([15]; laser photolysis): ≤ 0.05
- ΔH2^‡ bimolecular CO binding [15, 18]: 9.08 ± 0.96 kcal/mol
- ΔG2^‡ bimolecular CO binding ([15]; slower phase, at 20.0 °C): 10 ± 1.4 kcal/mol
- solubility in the aqueous buffered solution ([5]; p = 760.0 mm Hg, 20.0 °C, phosphate buffer pH 7.0): 1030 µM (≈ 28.9 µg/mL)
- Kd ([16]; Mt-Nb(II), pH 7.0, 25.0 °C, read-out: K (=koff/kon) for CO): 63000 nM
- kon(CO) ([16]; Mt-Nb(II), rapid-mixing, pH 7.0, 25.0 °C): 55000 M⁻¹ s⁻¹
- koff(CO) ([16]; Mt-Nb(II)-CO, pH 7.0, 25.0 °C): 3.5 ± 0.5 s⁻¹
- activation free energy ΔG^‡ of CO binding ([16]; Mt-Nb, from CO binding rate constant): 10.8 kcal/mol

From publication PMC7915275, “Mycobacterial and Human Ferrous Nitrobindins: Spectroscopic and Reactivity Properties” (International Journal of Molecular Sciences, 2021)
